Reference: ChEMBL document CHEMBL1201862, “PubChem BioAssay data set” (2004)
Calls of active or inactive are those of the source.

Key:
Fatty acid synthase [1] = target: T1, Fatty acid synthase (Homo sapiens, UniProt P49327); experiment: FAS thioesterase domain inhibitors, dose response, biochemical, endpoint fluorescence intensity, uHTS hits (AID 624327); assay type: functional;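 further: fluorescence from hydrolysis of an O-methyl fluorescein acyl ester substrate by the enzyme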
Fatty acid synthase [2] = target: T1, Fatty acid synthase; experiment: FAS thioesterase domain inhibitors, dose response, biochemical, kinetic fluorescence intensity (AID 624326); assay type: functional;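 further: rate of fluorescence rise from hydrolysis of a fluorogenic O-methyl fluorescein ester substrate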
[3] = target: T2, High affinity choline transporter 1 (Homo sapiens, UniProt Q9GZV3); experiment: CHT inhibitors, dose response, cell-based, 5-point CRC, membrane potential dye (AID 504840); assay type: functional
T2 sequence (Q9GZV3 whole entry): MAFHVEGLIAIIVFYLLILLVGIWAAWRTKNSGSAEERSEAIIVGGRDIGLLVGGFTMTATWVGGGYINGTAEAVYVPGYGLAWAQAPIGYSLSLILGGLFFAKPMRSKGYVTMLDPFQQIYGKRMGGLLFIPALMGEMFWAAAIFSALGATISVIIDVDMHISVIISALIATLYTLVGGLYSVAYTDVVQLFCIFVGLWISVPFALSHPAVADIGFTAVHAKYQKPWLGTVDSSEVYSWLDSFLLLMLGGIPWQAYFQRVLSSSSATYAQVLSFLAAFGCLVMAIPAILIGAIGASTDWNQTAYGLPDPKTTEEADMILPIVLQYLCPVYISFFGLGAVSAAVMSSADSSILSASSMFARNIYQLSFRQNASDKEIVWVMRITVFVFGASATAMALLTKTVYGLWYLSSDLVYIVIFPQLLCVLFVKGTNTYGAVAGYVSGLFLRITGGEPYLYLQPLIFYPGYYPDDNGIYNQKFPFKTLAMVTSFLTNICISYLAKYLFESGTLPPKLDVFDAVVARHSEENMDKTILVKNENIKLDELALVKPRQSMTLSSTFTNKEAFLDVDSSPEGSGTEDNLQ

[4] = target: Voltage-dependent T-type calcium channel subunit alpha-1H (Homo sapiens, UniProt O95180); assay type: functional;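 further: channel activity triggered by adding a high calcium stimulation buffer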
cells = assay type: functional
[5] = target: T3, Long-chain-fatty-acid--AMP ligase FadD28 (Mycobacterium tuberculosis, UniProt P9WQ59); experiment: Fluorescence polarization aasay to screen for inhibitors that compete for the binding of FadD28 to a bisubstrate Measured in Biochemical System Using Plate Reader - 2147-01_Inhibitor_Dose_CherryPick_Activity.; assay type: functional, Mycobacterium tuberculosis H37Rv
T3 sequence (P9WQ59 whole entry): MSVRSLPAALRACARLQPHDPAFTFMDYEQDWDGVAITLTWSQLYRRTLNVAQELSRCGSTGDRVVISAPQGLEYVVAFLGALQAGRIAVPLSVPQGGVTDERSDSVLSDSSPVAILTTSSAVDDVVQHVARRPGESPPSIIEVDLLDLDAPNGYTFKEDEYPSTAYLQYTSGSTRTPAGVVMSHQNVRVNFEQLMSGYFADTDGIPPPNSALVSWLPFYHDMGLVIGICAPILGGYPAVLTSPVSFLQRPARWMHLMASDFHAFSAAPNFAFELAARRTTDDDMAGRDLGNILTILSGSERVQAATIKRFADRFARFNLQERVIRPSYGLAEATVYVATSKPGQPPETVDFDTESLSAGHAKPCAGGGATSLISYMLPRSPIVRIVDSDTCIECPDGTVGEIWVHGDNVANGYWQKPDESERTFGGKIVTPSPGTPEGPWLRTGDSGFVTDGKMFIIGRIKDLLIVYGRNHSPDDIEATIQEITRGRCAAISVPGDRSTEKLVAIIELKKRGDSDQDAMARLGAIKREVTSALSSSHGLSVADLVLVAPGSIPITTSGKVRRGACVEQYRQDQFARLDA

[6] = target: T4, Heat shock factor protein 1 (Mus musculus, UniProt P38532); experiment: inhibition of MG132-induced HSE-luciferase signal, confirmation, cell-based, NIH3T3, luminescence, dose retest (AID 2382); assay type: functional;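 further: NIH3T3 fibroblasts with HSF1-driven luciferase reporter stressed by proteasome inhibitor MG132; luminescence from HSF1-driven luciferase expression after 8 hours of MG132 stress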
T4 sequence (P38532 whole entry): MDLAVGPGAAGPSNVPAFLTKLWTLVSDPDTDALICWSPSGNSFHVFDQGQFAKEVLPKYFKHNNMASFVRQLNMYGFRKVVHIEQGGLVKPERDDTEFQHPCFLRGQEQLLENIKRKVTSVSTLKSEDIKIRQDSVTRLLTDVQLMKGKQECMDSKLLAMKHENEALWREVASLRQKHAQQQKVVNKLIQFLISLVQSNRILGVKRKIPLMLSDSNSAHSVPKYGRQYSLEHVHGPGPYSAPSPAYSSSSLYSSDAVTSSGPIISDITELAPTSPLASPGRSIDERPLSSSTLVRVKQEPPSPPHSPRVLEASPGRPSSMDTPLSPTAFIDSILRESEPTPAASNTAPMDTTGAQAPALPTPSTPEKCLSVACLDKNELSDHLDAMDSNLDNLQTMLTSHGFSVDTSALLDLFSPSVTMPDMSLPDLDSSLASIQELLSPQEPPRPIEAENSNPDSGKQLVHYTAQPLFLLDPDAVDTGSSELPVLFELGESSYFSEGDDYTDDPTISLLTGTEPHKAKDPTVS

[7] = Luminescence Cell-Based Dose Retest to Confirm Inhibitors of Cancer Stem Cells. [Related pubchem assays (depositor defined):AID2717, AID2721]; assay type: functional; conditions: Homo sapiens
[8] = LGR2 antagonists, dose response, cell-based, HEK293, CRE-luciferase reporter, cherry pick, set 2 (AID 743343); assay type: functional;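 further: transfected cells were stimulated with diluted bursicon conditioned medium after compound addition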
[9] = MC4R antagonists, dose response, counter-screen for LGR2 antagonist project, cell-based, plate reader, cherry pick (AID 743444); assay type: functional;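 further: transfected HEK 293 cells stimulated with alpha-MSH peptide; potency of inhibitors of the alpha-MSH evoked signal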
[10] = inhibitors of HIV Env-driven cell fusion, dose response, cherry-pick (AID 652057); assay type: functional, cell-based
[11] = A549 cell cytotoxicity, dose response, cytotoxicity control, plate reader, cherry-pick, antagonist series (AID 743412); assay type: functional, cell-based
[12] = HepG2 cell cytotoxicity, dose response, cytotoxicity control, plate reader, cherry-pick, antagonist series (AID 743416); assay type: functional, cell-based
Paired box protein Pax-8 = Paired box protein Pax-8 (Homo sapiens, UniProt Q06710); experiment: inhibitors of PAX8-driven TPO luciferase reporter, dose response, RMG-I cells, cherry-pick (AID 687027); assay type: functional, cell-based;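 further: luciferase reporter driven by Pax8 target thyroperoxidase promoter measured by SteadyGlo luminescence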
P388/ADR = experiment: cells; assay type: functional; conditions: Mus musculus
SN12K1 = experiment: cells; assay type: functional; conditions: Homo sapiens
P388 = experiment: cells; assay type: functional; conditions: Mus musculus
[13] = ZM109 Env clade C HIV-1 fusion inhibitors, dose response, HeLa effector, CEM target cells, luciferase, cherry-pick (AID 652058); assay type: functional, cell-based
[14] = test system: Streptococcus sp. 'group A'; experiment: growth inhibition of control SK(-) GAS strain, dose response, counter-screen for streptokinase expression inhibitor project, luminescence, kanamycin, BacTiterGlo, confirmation (AID 1900); assay type: functional, organism-based
Streptokinase A = target: T5, Streptokinase A (Streptococcus pyogenes serotype M1, UniProt P10520); experiment: S. pyogenes streptokinase expression inhibitors, potency, dose response, plasminogen activation absorbance, OD405 (AID 1914); assay type: functional, Streptococcus pyogenes M1 GAS;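 further: secreted streptokinase activity via plasminogen activation per viability signal from cell pellet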
T5 sequence (P10520 whole entry): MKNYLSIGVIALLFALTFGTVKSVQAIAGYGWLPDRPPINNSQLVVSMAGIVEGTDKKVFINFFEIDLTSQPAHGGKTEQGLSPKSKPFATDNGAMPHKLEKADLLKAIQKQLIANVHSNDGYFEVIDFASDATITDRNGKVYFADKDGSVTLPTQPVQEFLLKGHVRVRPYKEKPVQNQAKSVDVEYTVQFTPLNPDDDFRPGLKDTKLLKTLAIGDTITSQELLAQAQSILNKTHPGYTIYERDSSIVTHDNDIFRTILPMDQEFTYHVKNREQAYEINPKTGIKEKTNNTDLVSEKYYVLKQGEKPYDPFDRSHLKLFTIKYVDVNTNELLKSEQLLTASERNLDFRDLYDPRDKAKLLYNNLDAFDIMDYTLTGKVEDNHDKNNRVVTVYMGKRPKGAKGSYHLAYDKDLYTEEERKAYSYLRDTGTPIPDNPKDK

Streptococcus = experiment: Group A Streptococcus viability loss, dose response, counter-screen for streptokinase expression inhibitor project, luminescence, BacTiterGlo (AID 1915); assay type: functional, organism-based;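 further: potency for reduction of bacterial viability or growth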
[15] = target: Heat shock protein HSP 90-alpha (Homo sapiens, UniProt P07900); assay type: functional, organism-based

T1 sequence (P49327 whole entry, the tested form may be a part): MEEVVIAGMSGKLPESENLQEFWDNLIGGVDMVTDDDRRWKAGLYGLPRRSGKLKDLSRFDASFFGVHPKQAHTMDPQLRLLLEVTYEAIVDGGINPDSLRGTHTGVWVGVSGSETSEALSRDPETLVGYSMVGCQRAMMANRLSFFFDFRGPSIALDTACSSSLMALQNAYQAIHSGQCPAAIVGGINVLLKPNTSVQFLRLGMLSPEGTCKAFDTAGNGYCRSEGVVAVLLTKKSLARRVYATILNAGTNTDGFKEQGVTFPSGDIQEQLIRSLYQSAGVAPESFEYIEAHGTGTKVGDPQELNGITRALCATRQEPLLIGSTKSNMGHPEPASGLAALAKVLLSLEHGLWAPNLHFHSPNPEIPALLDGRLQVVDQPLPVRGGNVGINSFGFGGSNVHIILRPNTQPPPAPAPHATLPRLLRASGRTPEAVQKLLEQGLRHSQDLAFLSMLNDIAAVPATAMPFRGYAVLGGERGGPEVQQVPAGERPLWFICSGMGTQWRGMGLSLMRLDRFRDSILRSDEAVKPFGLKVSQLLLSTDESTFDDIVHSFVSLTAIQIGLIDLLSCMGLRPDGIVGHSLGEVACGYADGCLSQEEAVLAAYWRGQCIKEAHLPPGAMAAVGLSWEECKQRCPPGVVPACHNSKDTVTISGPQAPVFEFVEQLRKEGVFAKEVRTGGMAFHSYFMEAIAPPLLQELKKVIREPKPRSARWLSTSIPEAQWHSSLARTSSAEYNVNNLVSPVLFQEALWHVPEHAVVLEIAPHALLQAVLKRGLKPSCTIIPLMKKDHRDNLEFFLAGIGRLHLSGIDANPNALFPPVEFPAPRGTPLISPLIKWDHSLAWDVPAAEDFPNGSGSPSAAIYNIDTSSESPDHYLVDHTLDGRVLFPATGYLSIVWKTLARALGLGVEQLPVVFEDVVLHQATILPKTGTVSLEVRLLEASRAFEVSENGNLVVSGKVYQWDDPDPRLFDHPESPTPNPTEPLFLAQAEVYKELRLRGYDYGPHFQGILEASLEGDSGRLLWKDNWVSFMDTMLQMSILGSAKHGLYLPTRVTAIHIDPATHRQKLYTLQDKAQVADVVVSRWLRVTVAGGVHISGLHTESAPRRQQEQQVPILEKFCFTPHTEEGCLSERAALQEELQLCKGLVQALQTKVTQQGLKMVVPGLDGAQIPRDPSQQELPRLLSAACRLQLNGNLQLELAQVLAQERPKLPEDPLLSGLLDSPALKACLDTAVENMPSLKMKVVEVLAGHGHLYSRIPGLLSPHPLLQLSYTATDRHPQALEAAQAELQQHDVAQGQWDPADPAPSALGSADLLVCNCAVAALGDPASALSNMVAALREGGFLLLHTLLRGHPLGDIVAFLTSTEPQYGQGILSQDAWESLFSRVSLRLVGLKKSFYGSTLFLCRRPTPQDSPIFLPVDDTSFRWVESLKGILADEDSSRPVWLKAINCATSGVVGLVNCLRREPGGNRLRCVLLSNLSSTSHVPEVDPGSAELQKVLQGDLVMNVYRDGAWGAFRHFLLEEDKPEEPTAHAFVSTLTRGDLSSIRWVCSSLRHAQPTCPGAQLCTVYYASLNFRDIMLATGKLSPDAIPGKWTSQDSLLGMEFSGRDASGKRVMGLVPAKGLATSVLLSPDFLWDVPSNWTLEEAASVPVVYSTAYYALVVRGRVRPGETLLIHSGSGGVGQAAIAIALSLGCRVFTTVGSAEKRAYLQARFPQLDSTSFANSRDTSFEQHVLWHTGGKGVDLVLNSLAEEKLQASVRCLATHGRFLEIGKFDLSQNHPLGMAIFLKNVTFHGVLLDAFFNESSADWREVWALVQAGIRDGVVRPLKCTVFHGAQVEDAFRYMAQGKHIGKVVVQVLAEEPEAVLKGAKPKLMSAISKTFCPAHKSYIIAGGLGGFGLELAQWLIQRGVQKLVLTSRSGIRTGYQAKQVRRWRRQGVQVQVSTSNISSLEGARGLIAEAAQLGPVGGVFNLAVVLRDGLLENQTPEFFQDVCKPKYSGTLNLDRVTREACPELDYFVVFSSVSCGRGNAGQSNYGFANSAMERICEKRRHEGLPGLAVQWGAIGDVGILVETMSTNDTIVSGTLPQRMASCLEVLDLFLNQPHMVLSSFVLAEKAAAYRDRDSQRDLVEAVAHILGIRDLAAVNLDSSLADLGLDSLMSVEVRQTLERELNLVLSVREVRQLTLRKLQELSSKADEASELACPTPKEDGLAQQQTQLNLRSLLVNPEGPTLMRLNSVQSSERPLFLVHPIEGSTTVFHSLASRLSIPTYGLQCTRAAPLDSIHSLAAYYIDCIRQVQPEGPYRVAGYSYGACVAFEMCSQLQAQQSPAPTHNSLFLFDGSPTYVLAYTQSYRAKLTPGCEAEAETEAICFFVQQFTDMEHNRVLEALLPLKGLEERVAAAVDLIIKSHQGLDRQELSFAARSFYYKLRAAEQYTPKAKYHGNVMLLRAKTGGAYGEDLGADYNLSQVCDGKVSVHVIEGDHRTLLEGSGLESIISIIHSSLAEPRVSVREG
Chain of Voltage-dependent T-type calcium channel subunit alpha-1H (O95180 whole entry): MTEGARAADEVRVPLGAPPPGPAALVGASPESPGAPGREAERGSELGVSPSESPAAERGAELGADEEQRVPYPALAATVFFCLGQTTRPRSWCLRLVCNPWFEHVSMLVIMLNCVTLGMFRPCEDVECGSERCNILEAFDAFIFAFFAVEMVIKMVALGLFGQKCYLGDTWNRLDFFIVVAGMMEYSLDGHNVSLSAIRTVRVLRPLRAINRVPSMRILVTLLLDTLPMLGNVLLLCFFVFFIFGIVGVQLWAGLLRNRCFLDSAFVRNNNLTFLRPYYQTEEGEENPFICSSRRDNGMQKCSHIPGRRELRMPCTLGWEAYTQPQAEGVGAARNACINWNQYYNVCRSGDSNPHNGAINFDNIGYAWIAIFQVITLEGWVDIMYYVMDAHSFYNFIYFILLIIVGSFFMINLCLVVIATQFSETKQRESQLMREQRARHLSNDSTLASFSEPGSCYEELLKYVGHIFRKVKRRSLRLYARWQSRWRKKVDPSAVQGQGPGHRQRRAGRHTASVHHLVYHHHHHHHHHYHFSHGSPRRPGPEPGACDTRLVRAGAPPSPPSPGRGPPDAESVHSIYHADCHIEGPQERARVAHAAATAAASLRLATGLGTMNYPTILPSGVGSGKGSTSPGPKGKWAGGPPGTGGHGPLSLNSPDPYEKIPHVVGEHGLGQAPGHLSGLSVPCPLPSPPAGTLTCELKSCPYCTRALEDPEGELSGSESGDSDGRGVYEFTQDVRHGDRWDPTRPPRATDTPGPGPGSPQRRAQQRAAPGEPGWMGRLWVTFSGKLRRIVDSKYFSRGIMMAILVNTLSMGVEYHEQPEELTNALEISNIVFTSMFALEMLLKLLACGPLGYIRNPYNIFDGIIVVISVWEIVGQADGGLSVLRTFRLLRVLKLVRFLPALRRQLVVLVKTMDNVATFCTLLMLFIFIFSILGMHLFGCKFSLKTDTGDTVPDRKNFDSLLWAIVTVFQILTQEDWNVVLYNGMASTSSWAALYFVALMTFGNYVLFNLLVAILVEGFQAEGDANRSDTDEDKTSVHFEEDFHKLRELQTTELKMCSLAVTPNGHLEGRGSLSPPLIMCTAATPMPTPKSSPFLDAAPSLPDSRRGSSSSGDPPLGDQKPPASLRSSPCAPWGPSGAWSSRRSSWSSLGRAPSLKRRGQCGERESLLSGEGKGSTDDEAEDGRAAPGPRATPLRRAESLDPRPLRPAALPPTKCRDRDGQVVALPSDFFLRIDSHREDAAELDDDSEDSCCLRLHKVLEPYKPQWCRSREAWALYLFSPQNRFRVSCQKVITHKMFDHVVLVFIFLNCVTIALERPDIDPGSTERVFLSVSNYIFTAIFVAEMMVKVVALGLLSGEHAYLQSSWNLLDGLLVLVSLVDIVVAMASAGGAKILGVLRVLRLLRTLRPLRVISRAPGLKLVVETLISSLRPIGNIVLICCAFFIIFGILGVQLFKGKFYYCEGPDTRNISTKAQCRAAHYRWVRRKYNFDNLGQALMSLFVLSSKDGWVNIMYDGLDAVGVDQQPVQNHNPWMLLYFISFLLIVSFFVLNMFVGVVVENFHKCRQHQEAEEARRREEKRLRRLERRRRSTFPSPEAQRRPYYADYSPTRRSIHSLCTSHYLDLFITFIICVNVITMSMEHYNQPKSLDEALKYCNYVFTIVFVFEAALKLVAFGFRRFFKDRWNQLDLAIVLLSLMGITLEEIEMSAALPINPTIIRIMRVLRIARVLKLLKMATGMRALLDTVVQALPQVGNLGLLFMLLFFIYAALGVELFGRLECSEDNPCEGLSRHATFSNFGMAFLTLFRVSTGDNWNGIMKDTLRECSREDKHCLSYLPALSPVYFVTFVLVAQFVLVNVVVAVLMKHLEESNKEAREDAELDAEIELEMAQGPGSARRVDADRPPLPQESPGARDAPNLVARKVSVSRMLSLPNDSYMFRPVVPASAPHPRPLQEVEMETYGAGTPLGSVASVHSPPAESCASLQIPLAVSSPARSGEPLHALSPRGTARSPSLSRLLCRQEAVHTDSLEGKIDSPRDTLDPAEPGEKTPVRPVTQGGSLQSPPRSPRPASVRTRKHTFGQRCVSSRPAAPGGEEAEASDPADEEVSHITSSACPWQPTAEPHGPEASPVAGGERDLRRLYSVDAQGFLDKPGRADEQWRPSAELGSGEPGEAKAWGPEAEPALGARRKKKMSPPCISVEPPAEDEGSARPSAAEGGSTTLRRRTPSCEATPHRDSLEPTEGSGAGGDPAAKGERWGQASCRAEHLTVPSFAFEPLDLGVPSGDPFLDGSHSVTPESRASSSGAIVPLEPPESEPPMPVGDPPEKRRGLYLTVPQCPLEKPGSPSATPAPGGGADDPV

Cc1nn(Cc2ccc([N+](=O)[O-])cc2)c(=O)n1-c1cccc(Cl)c1
IC50 (Fatty acid synthase [1]): 5.54 µM (active)
IC50 (Fatty acid synthase [2]): 8.36 µM (active)

CCS(=O)(=O)C1=NSC2=NC(=O)/C(=C\c3ccc(OS(=O)(=O)c4ccccc4)c(OC)c3)C(=N)N21
IC50 [3]: 13.5 µM (active)

Cc1ccc(-c2noc(CCC(=O)Nc3cccc(C#N)c3)n2)cc1
EC50 [4]: 2.84 µM (active)
IC50 (cells): 19.9 µM (active)

C=CCc1cc(C)ccc1OCC(O)CN1CCN(c2ccccc2)CC1 (stereo unspecified)
EC50 [4]: 8.33 µM (active)

O=C(O)c1ccc(-c2nc(-c3ccccc3)c(-c3ccccc3)[nH]2)cc1
AC50 [5]: 92.3 µM (active)

Cc1ccccc1-n1nc2c(c1NC(=O)c1ccc(Br)o1)CSC2
EC50 [4]: 5.29 µM (active)

CC(=O)c1cc(C#N)c(SCCC(C)C)nc1C
IC50 (Fatty acid synthase [1]): 9.77 µM (active)
IC50 (Fatty acid synthase [2]): 9.54 µM (active)

Cn1c(SCC(=O)Nc2ncc(C(F)(F)F)cc2Cl)nnc1-c1ccc(Cl)cc1
EC50 [6]: > 195 µM (not active)
IC50 (Fatty acid synthase [1]): 0.551 µM (active)
IC50 (Fatty acid synthase [2]): 0.572 µM (active)

COc1ccc([N+](=O)[O-])cc1NC(=O)N(C)Cc1ccco1
IC50 (Fatty acid synthase [1]): 17.7 µM (active)
IC50 (Fatty acid synthase [2]): 21.1 µM (inactive)

COc1ccc(C(c2nnnn2Cc2ccc(F)cc2)N2CCN(c3ccccc3)CC2)cc1 (stereo unspecified)
EC50 [4]: 2.66 µM (active)

Cc1cccc(NC(=O)COC(=O)c2cccc(S(=O)(=O)N3CCCCCC3)c2)c1
AC50 [5]: 7.43 µM (active)

Cc1ccc(S(=O)(=O)N(CC(=O)N2CCN(c3ccc(F)cc3)CC2)C2CCCCC2)cc1
EC50 [4]: 4.33 µM (active)

Clc1ccc(CSc2nnnn2-c2ccc3c(c2)OCO3)c(Cl)c1
EC50 [4]: 9.79 µM (active)
AC50 [7]: 13.1 µM (active)

COC(=O)CSc1nnc(-c2ccc(NS(=O)(=O)c3ccccc3)cc2)o1
IC50 [3]: 12 µM (active)

COc1ccccc1/C=C1\SC(=O)N(CC(=O)NCCCn2ccnc2)C1=O
IC50 [3]: 19.1 µM (active)

CCc1nc(Sc2nnnn2-c2ccccc2)c2c3c(sc2n1)CCCC3
AC50 [8]: 5.1 µM (active)
AC50 [9]: 5.14 µM (active)

Cc1cccc(NC(=O)CN2C(=O)N/C(=C/c3ccc(-c4cccc(C(=O)O)c4C)o3)C2=O)c1
AC50 [5]: 72.3 µM (active)

S=C(NCc1ccccc1)NCc1cccc(CNC(=S)NCc2ccccc2)c1
AC50 [5]: 27.3 µM (active)

Cc1ccc(C(=O)N2CCN(c3ccccc3)CC2)cc1S(=O)(=O)N1CCCC1
IC50 [3]: 11 µM (active)

CCOC(=O)[C@@H]1[C@H]2COc3cc(OC)ccc3[C@H]2N2C(=O)N(c3cccc(F)c3)C(=O)[C@@]12C
AC50 [10]: 35.2 µM (active)

c1ccc(COc2cccc(-c3cc4nc(NCCCn5ccnc5)ccn4n3)c2)cc1
AC50 [11]: 40 µM (active)
AC50 [12]: > 52 µM (inactive)

CC(=O)Nc1ccc(S(=O)(=O)c2ccnc3cc(Cl)ccc23)cc1
AC50 (Paired box protein Pax-8): 0.449 µM (active)
AC50 [11]: 26.9 µM (active)
AC50 [8]: 66.3 µM (active)

Cc1ccc(C(C)C)c(OCCOCCN2CCNCC2)c1
IC50 [3]: 13.8 µM (active)

O=C(CCC1CCCC1)NCCCNC(=O)CCC1CCCC1
IC50 [3]: 15.8 µM (active)

CCCC[S+]([O-])CC(CO)NC(=O)/C=C/c1c(C)[nH]c(=O)[nH]c1=O (stereo unspecified)
GI50 (P388/ADR): 1.5 µM (inactive)
GI50 (SN12K1): 6.01 µM (inactive)
GI50 (P388): 1.58 µM (inactive)

N/C(=N\O)N/N=C\c1ccc(O)c(O)c1O
GI50 (P388/ADR): 8.65 µM (inactive)
GI50 (SN12K1): 17.7 µM (inactive)
GI50 (P388): 14.4 µM (inactive)

S=c1sc2c(s1)SC(c1ccccc1)CS2 (stereo unspecified)
GI50 (P388/ADR): 44.6 µM (inactive)
GI50 (SN12K1): > 89.5 µM (inactive)
GI50 (P388): 9.86 µM (inactive)

COc1cc(/N=N\c2cccc(S(=O)(=O)O)c2)ccc1/N=N\c1ccc(/C=C/c2ccc(-n3on3-c3ccc(/C=C/c4ccc(/N=N/c5ccc(/N=N\c6cccc(S(=O)(=O)O)c6)cc5OC)cc4S(=O)(=O)O)c(S(=O)(=O)O)c3)cc2S(=O)(=O)O)c(S(=O)(=O)O)c1
GI50 (P388/ADR): > 100 µM (inactive)
GI50 (SN12K1): > 100 µM (inactive)
GI50 (P388): > 100 µM (inactive)

Cc1ccc(C(=O)NCC(=O)OCc2nnc(-c3ccc([N+](=O)[O-])cc3)o2)cc1
IC50 (Fatty acid synthase [1]): 4.73 µM (active)
IC50 (Fatty acid synthase [2]): 5.56 µM (active)

COC(=O)C[C@H]1C=C[C@H](NC(=O)c2ccccn2)[C@@H](CO)O1
AC50 [13]: 0.414 µM (active)

COc1cc(C2c3cc4c(cc3[C@@H](Nc3ccc(Oc5ccccc5)cc3)C3COC(=O)[C@H]23)OCO4)cc(OC)c1O (stereo partly specified)
GI50 (P388/ADR): 0.407 µM (active)
GI50 (SN12K1): 0.935 µM (active)
GI50 (P388): 0.0504 µM (active)

Cc1cccc(C)c1/N=C1\C(Cl)=C(O)OC1OC(=O)c1ccccc1 (stereo unspecified)
IC50 (Fatty acid synthase [1]): 4.46 µM (active)
IC50 (Fatty acid synthase [2]): 4.54 µM (active)

Cc1ccc(N/N=C(\C=O)C(=O)c2ccc(Cl)cc2)cc1
EC50 [14]: 8.86 µM (active)
EC50 [6]: 4.78 µM (active)
EC50 (Streptokinase A): > 50 µM (not active)
EC50 (Streptococcus): 14.8 µM (active)
AC50 [15]: 5.6 µM (active)

Cc1c2ccncc2c(C)c2c1[nH]c1ccc(Cl)cc12
GI50 (P388/ADR): 1.83 µM (inactive)
GI50 (SN12K1): 2.94 µM (inactive)
GI50 (P388): 1.63 µM (inactive)

CC(CN1CC(=O)NC(=O)C1)N1CC(=O)NC(=O)C1 (stereo unspecified) [RAZOXANE]
GI50 (P388/ADR): 141 µM (inactive)
GI50 (SN12K1): 58.1 µM (inactive)
GI50 (P388): 1.85 µM (inactive)
